In this assay the target is 5-hydroxytryptamine receptor 7 (Homo sapiens) (UniProt P34969). Nature of the assay: Binding affinity to human 5HT7 receptor expressed in CHO cells. Format: cell-based.

SMILES strings stand for the structures.

Chain of 5-hydroxytryptamine receptor 7 (Homo sapiens) (P34969 whole entry): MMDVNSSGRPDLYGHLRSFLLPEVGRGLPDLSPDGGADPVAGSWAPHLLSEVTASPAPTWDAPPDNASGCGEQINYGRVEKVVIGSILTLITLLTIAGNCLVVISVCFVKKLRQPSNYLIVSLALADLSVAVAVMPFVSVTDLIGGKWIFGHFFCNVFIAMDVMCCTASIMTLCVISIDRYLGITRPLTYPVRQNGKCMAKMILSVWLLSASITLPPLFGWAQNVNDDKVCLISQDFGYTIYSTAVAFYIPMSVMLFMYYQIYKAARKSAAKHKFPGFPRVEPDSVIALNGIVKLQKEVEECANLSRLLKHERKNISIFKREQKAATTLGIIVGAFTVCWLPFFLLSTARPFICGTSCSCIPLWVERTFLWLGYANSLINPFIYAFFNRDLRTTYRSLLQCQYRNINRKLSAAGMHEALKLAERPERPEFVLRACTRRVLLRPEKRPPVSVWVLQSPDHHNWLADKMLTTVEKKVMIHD

One may read the pKb as the negative decadic logarithm of the Kb, by convention in mol/L. A higher pKb goes with a low Kb. `O=C(OC1CCN(CC[C@H]2CCCN2S(=O)(=O)c2ccccc2)CC1)c1ccc(F)cc1` yielded a pKb of 7.1.
Next, `COc1ccccc1N1CCN(CCCNS(=O)(=O)c2ccc(F)cc2)CC1`: 7.26.
